# Measured values: patent US20230086007A1, “USE OF DENATONIUM BENZOATE AS A SEED TREATMENT FOR CROPS AS BIRD AND/OR INSECT REPELLENT” (KWS SAAT SE & Co. KGaA, priority 2020, published 2023)
# Values joined by “and” are separate entries in the source; they are usually repeats but may differ in a detail not shown here. Equal values may be shown once.
# Legend:
# corn seeds = test: Phytotoxicity: cold test germination rate (CT) of treated corn seeds; conditions: for ΔCT: vs no Bitrex
# Method: In order to evaluate the phytotoxicity of different corn seed treatments, safety tests were conducted. Germination rates of corn seeds treated with various concentrations of denatonium benzoate (Bitrex®) [in g per unit, where 1 unit is 50.000 seeds] were counted after five days at 25° C. Cold test germination rates (CT) were counted after 7 days at 10° C. and 5 days at 25° C. The treatments were compared to untreated seeds.
# KF=germination rates counted after 5 days at 25° C. and CT=cold test germination rates counted after 7 days at 10° C. and 5 days at 25° C.
# [1] = LC-MS-MS determination of denatonium benzoate in corn plants grown from treated seed; type: in vivo, Zea mays; conditions: for Bitrex concentration: first leaf of corn seedling
# Method: To determine, if denatonium benzoate could be systemic (taken up by the plant), a Liquid Chromatography with tandem mass spectrometry (LC-MS-MS) was performed, which is a powerful analytical technique that combines the separating power of liquid chromatography with the highly sensitive and selective mass analysis capability of triple quadrupole mass spectrometry. Therefore, we used 1) seedlings just after field emergence to determine the content of denatonium benzoate in the complete plant and in the sprout separately (Table 3), as well as 2) middle-aged plants (V6-V8), where the leaves have been investigated (Table 4).
# Beside above experiments the concentration of Bitrex in the first leaf of the seedling have been measured wherein different dosages of Bitrex have been applied to the seed. The higher the application rate, the higher was the Bitrex concentration in the tested leaf tissue.
# maize plants = test: Wireworm field trial in Italy: phytotoxicity (PHYGEN) and vigor (VIGOR); conditions: for PHYGEN phytotoxicity, stage E: at emergence; for VIGOR, stage E / VIGOR, stage V3 / VIGOR, stage V5: ratings from 1-10 (10 is best)
# From the text: Evaluation took place at emergence (E), at V3 stage (=3 leaves unfolded) and at V5 stage (=5 leaves unfolded). The following characteristics have been phenotyped: phytotoxicity (PHYGEN) at stage E, V3 and V5 in % per plot, vigor (VIGOR) at stage E, V3 and V5 in ratings from 1-10 (10 is best), insect damage (DAMINS) at stage V5 in plants per row (left DAMINS column in Table 7) and in % per row (right DAMINS column in Table 7).
# [2] = ø of varieties and chemicals, Bitrex 2.0 g/u
# [3] = ø of varieties and chemicals, Bitrex 5.0 g/u
# [4] = ø of varieties, chemical no, Bitrex 0.2 g/u
# [5] = ø of varieties, chemical no, Bitrex 0.5 g/u
# [6] = ø of varieties, chemical no, Bitrex 1.0 g/u
# [7] = ø of varieties, chemical no, Bitrex 2.0 g/u
# [8] = ø of varieties, chemical no, Bitrex 5.0 g/u
# [9] = ø of varieties, with MaximXL, Bitrex 0.2 g/u
# [10] = ø of varieties, with MaximXL, Bitrex 0.5 g/u
# [11] = ø of varieties, with MaximXL, Bitrex 1.0 g/u
# [12] = ø of varieties, with MaximXL, Bitrex 2.0 g/u
# [13] = ø of varieties, with MaximXL, Bitrex 5.0 g/u
# [14] = ø of varieties, with RedigoM, Bitrex 0.2 g/u
# [15] = ø of varieties, with RedigoM, Bitrex 0.5 g/u
# [16] = ø of varieties, with RedigoM, Bitrex 1.0 g/u
# [17] = ø of varieties, with RedigoM, Bitrex 2.0 g/u
# [18] = ø of varieties, with RedigoM, Bitrex 5.0 g/u
smiles,measurement,setting,value
"CC[N+](CC)(CC(=O)Nc1c(C)cccc1C)Cc1ccccc1.O=C([O-])c1ccccc1 [Bitrex, N-Benzyl-2-(2,6-dimethylanilino)-N, N-diethyl-2-oxoethan-1-aminium benzoate]",ΔCT,corn seeds; [2],0.3%
same,ΔCT,corn seeds; [3],1.1%
same,ΔCT,corn seeds; [4],5.8%
same,ΔCT,corn seeds; [5],4.3%
same,ΔCT,corn seeds; [6],7.2%
same,ΔCT,corn seeds; [7],2.8%
same,ΔCT,corn seeds; [8],4.5%
same,ΔCT,corn seeds; [9],−0.5%
same,ΔCT,corn seeds; [10],−0.7%
same,ΔCT,corn seeds; [11],−2.0%
same,ΔCT,corn seeds; [12],−1.8%
same,ΔCT,corn seeds; [13],−0.5%
same,ΔCT,corn seeds; [14],0.0%
same,ΔCT,corn seeds; [15],0.5%
same,ΔCT,corn seeds; [16],2.0%
same,ΔCT,corn seeds; [17],−0.2%
same,ΔCT,corn seeds; [18],−0.7%
same,"CT cold test germination rate, 7 days at 10° C. and 5 days at 25° C.","corn seeds; ø of varieties and chemicals, Bitrex 0.2 g/u",97.0%
same,"CT cold test germination rate, 7 days at 10° C. and 5 days at 25° C.","corn seeds; ø of varieties and chemicals, Bitrex 0.5 g/u",96.6%
same,"CT cold test germination rate, 7 days at 10° C. and 5 days at 25° C.","corn seeds; ø of varieties and chemicals, Bitrex 1.0 g/u",97.7%
same,"CT cold test germination rate, 7 days at 10° C. and 5 days at 25° C.",corn seeds; [2],95.5%
same,"CT cold test germination rate, 7 days at 10° C. and 5 days at 25° C.",corn seeds; [3],96.3%
same,"CT cold test germination rate, 7 days at 10° C. and 5 days at 25° C.",corn seeds; [4],94.8%
same,"CT cold test germination rate, 7 days at 10° C. and 5 days at 25° C.",corn seeds; [5],93.3%
same,"CT cold test germination rate, 7 days at 10° C. and 5 days at 25° C.",corn seeds; [6],96.3%
same,"CT cold test germination rate, 7 days at 10° C. and 5 days at 25° C.",corn seeds; [7],91.8%
same,"CT cold test germination rate, 7 days at 10° C. and 5 days at 25° C.",corn seeds; [8],93.5%
same,"CT cold test germination rate, 7 days at 10° C. and 5 days at 25° C.",corn seeds; [9],99.0%
same,"CT cold test germination rate, 7 days at 10° C. and 5 days at 25° C.",corn seeds; [10],98.8%
same,"CT cold test germination rate, 7 days at 10° C. and 5 days at 25° C.",corn seeds; [11],97.5%
same,"CT cold test germination rate, 7 days at 10° C. and 5 days at 25° C.",corn seeds; [12],97.8%
same,"CT cold test germination rate, 7 days at 10° C. and 5 days at 25° C.",corn seeds; [13],99.0%
same,"CT cold test germination rate, 7 days at 10° C. and 5 days at 25° C.",corn seeds; [14],97.3%
same,"CT cold test germination rate, 7 days at 10° C. and 5 days at 25° C.",corn seeds; [15],97.8%
same,"CT cold test germination rate, 7 days at 10° C. and 5 days at 25° C.",corn seeds; [16],99.3%
same,"CT cold test germination rate, 7 days at 10° C. and 5 days at 25° C.",corn seeds; [17],97.0%
same,"CT cold test germination rate, 7 days at 10° C. and 5 days at 25° C.",corn seeds; [18],96.5%
same,μg DNB/plant or sprout,"[1]; corn seedlings just after field emergence, complete plants",5.87 μg DNB/plant or sprout
same,concentration in sprouts,"[1]; corn, early stage",200-800 ppb
same,concentration in the complete plant,"[1]; corn, early stage",10-20 ppm
same,Bitrex concentration,[1]; 0.8 g/unit applied to seed,36.8 ng/g
same,Bitrex concentration,[1]; 1 g/unit applied to seed,96.2 ng/g and 88.7 ng/g and 75.2 ng/g and 55.0 ng/g and 70.4 ng/g and 97.1 ng/g
same,Bitrex concentration,[1]; 2 g/unit applied to seed,178.2 ng/g and 155.6 ng/g
same,concentration in leaves,[1]; middle-aged corn plants,5-20 ppb
same,Final Conc.,"[1]; middle-aged corn plants (V6-V8), leaves, sample 14 DNB 0.8g, plants P1-P3, listed as DNB",5.49 ppb/ng/g and 5.34 ppb/ng/g and 5.46 ppb/ng/g
same,"PHYGEN phytotoxicity, stage V3","maize plants; 5 g Bitrex per 50,000 seeds",0 % per plot
same,"PHYGEN phytotoxicity, stage V5","maize plants; 5 g Bitrex per 50,000 seeds",0 % per plot
same,"PHYGEN phytotoxicity, stage E","maize plants; 5 g Bitrex per 50,000 seeds",0 % per plot
same,"VIGOR, stage E","maize plants; 5 g Bitrex per 50,000 seeds",10
same,"VIGOR, stage V3","maize plants; 5 g Bitrex per 50,000 seeds",10
same,"VIGOR, stage V5","maize plants; 5 g Bitrex per 50,000 seeds",10
same,"PHYGEN phytotoxicity, stage V3","maize plants; 10 g Bitrex per 50,000 seeds",0 % per plot
same,"PHYGEN phytotoxicity, stage V5","maize plants; 10 g Bitrex per 50,000 seeds",0 % per plot
same,"PHYGEN phytotoxicity, stage E","maize plants; 10 g Bitrex per 50,000 seeds",0 % per plot
same,"VIGOR, stage E","maize plants; 10 g Bitrex per 50,000 seeds",10
same,"VIGOR, stage V3","maize plants; 10 g Bitrex per 50,000 seeds",10
same,"VIGOR, stage V5","maize plants; 10 g Bitrex per 50,000 seeds",10
same,"PHYGEN phytotoxicity, stage V3","maize plants; 20 g Bitrex per 50,000 seeds",0 % per plot
same,"PHYGEN phytotoxicity, stage V5","maize plants; 20 g Bitrex per 50,000 seeds",0 % per plot
same,"PHYGEN phytotoxicity, stage E","maize plants; 20 g Bitrex per 50,000 seeds",0 % per plot
same,"VIGOR, stage E","maize plants; 20 g Bitrex per 50,000 seeds",10
same,"VIGOR, stage V3","maize plants; 20 g Bitrex per 50,000 seeds",10
same,"VIGOR, stage V5","maize plants; 20 g Bitrex per 50,000 seeds",10
same,negative effect on plant vitality with respect to phytotoxicity and plant vigor,"maize plants; Bitrex applied at high concentration (5-20 g per 50,000 seeds), field trial",has not been observed
